Test results: patent US20190290656A1, “PT(IV) PRODRUGS” (YISSUM RESEARCH DEVELOPMENT COMPANY OF THE HEBREW …, priority 2015, published 2019)
Read-outs that look alike come from different tables or passages of the source.

How the values were obtained:
HCT-15 cells = experiment: MTT cytotoxicity assay, HCT-15; format: cell-based, human
Summary of the method: (§1)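 MTT viability read-out in HCT-15 and A375 human cancer cells after 72 h compound exposure; triplicate cultures per treatment.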

A375 cells = experiment: MTT cytotoxicity assay, A375; format: cell-based, human
Summary of the method: as §1

2008 cells = experiment: MTT cytotoxicity assay, 2008; format: cell-based, human; settings: for IC50: 2008, 72 h, MTT
Protocol: (§2) MTT assay. […] Triplicate cultures were established for each treatment.
(§3) The two dimers, 3a and 3b, as well as compounds 1a and 2a were screened against six human cancer cell lines representative of lung (H157), colon (HCT-15), cervical (A431), ovarian (2008) and pancreatic (PSN1) cancers, along with melanoma (A375). Cytotoxicity was evaluated by means of the MTT test after 72 h of treatment and the in vitro antitumor potential of newly synthesized derivatives was compared to that of the reference metallo-drugs CDDP and OXP.

A431 cells = experiment: MTT cytotoxicity assay, A431; format: cell-based, human; settings: A431, 72 h
Protocol: as §2, §3

H157 cells = experiment: MTT cytotoxicity assay, H157; format: cell-based, human; settings: H157, 72 h
Protocol: as §2, §3

PSN1 cells = experiment: MTT cytotoxicity assay, PSN1; format: cell-based, human; settings: for IC50: PSN1, 72 h, MTT
Protocol: as §2, §3

HCT-15 spheroids = experiment: 3D spheroid APH assay, HCT-15; format: cell-based, human; settings: for IC50: HCT-15 spheroids, 72 h, APH test
Text: (§4) Acid phosphatase (APH) assay. A modified APH assay, which is based on quantification of cytosolic acid phosphatase activity, was used for determining cell viability in spheroids. […] Triplicate cultures were established for each treatment. […] Evaluation was based on means from at least four independent experiments.
(§5) In order to improve the predictive capacity of the in vitro assays, we tested the activity in three three-dimensional (3D) cell cultures; human colon cancer cells, HCT-15, and human pancreatic cancer cells, KRAS wild type BxPC3 cells KRAS mutated PSN-1 cells. The cancer spheroids were treated with 3a and 3b for 72 h and the cell viability was assessed by means of the APH assay (Table 6). For comparison purposes, the cytotoxicities of CDDP and OXP were evaluated under the same experimental conditions.

BxPC3 spheroids = experiment: 3D spheroid APH assay, BxPC3; format: cell-based, human; settings: 72 h, APH test
Text: as §4, §5

PSN-1 spheroids = experiment: 3D spheroid APH assay, PSN-1; format: cell-based, human; settings: for IC50: PSN-1 spheroids, 72 h, APH test
Text: as §4, §5

[1] = system: human embryonic kidney HEK293 cells; experiment: MTT cytotoxicity against non-tumor cells; format: cell-based; settings: for IC50: HEK293 non-tumor cells, 72 h, MTT; for SI (selectivity index): ratio between average IC50 of non-tumor cells and IC50 of malignant cells
Protocol: as §2
The cytotoxic activity of derivatives 3a and 3b was also evaluated against non-tumor cells, namely human embryonic kidney HEK293 cells (Table 7). Both compounds 3a and 3b were more cytotoxic than CDDP.

[2] = Stability in cell culture medium DMEM (NMR); format: physicochemical; settings: 37° C.
Protocol: A solution 2.0 mM of 3a (Scheme 4) in DMEM was kept at 37° C. for 3 days. NMR measurements were performed every day.
A phosphate buffer solution is an oversimplified model for medium of biological relevance in order to test the stability of a drug candidate. […] Thus, as following step, we evaluated the stability of 3a in cell culture medium DMEM, where the biomolecules present can affect the overall degradation process. A 2.0 mM solution of 3a in DMEM monitored by ^1H NMR spectroscopy for 3 days at 37° C. (FIG. 8).

[3] = system: Histone deacetylase (HDAC); experiment: Histone deacetylase assay in 2008 cells; format: cell-based, human; settings: 24 h, IC50 concentrations
Protocol: (§6) Histone deacetylase assay. Histone deacetylase activity was determined using Fluor-de-Lys® HDAC fluorometric activity assay kit (Enzo Life Sciences International, Inc., Plymount Meeting, Pa., U.S.A.). 2008 and PSN1 cells (5.10^4 seeded in 96-well microplates) were treated for 24 h with tested complexes, and then processed as reported by the manufacturer's instructions. Fluorescence was measured using a Fluoroskan Ascent FL (Labsystem, Finland) plate reader, with excitation at 360 nm and emission at 460 nm.
(§7) Thus, we measured both the levels of DNA platination and the ability of these pro-drugs to inhibit HDAC activity in cancer cells.

[4] = system: Histone deacetylase (HDAC); experiment: Histone deacetylase assay in PSN-1 cells; format: cell-based, human; settings: 24 h, IC50 concentrations
Protocol: as §6, §7

PSN-1 cells = experiment: Nuclear DNA fragmentation ELISA, PSN-1; format: cell-based, human; settings: 48 h, IC50
Protocol: FIGS. 13A-13B provide: FIG. 13A) Cytochrome c release. […] FIG. 13B) Nuclear DNA fragmentation. […] Quantitative estimation of DNA fragmentation was obtained with an ELISA test. Data are the means of five independent experiments. Error bars indicate SD.
After 48 h of treatment a roughly 20-fold increase in histone-DNA formation was detected with 3a with respect to controls.

A498 cells = experiment: MTT cytotoxicity assay, A498; format: cell-based, human; settings: A498, 72 h exposure, read-out: IC50 (median growth inhibitory concentration)
Protocol: Platinum(IV) complexes were dissolved in DMSO to stock solutions of 1 mg/mL just before the experiment, and a calculated amount of drug solution was added to the cell growth medium to a final solvent concentration of 0.5%, which had no discernible effect on cell killing. Cisplatin (CDDP) and oxaliplatin (OXP) were dissolved just before the experiment in a 0.9% NaCl solution.
Human prostate adenocarcinoma (PC3) cells were obtained from European Collection of Cell Cultures (ECACC, Salisbury, UK). Human ovarian cancer cell lines A2780 and its cisplatin resistant variant, A2780cisR, were kindly provided by Prof.
Cancer Res. 1988, 48, 589-601]. […] Triplicate cultures were established for each treatment.

[5] = octanol/water partition, shake-flask method; format: physicochemical
Protocol: To quantify the hydrophobicity of the platinum complexes, partition coefficients (log P) values for octanol/water partition were measured using the shake-flask method.

[6] = HCT-15, 72 h, MTT (Table 5), read-out: IC50 (μM) ± S.D.
[7] = A375, 72 h, MTT (Table 5), read-out: IC50 (μM) ± S.D.

| Compound | IC50 (HCT-15 cells; [6]) [µM] | IC50 (A375 cells; [7]) [µM] | IC50 (2008 cells) [µM] | IC50 (A431 cells) [µM] | IC50 (H157 cells) [µM] | IC50 (PSN1 cells) [µM] | IC50 (HCT-15 spheroids) [µM] | IC50 (BxPC3 spheroids) [µM] | IC50 (PSN-1 spheroids) [µM] | IC50 [1] [µM] | SI (selectivity index) [1] | HDAC activity hampered [3] | HDAC activity hampered [4] | other results |
| --- | --- | --- | --- | --- | --- | --- | --- | --- | --- | --- | --- | --- | --- | --- |
| c,c,t,t,c,c-[(DACH)(56Phen)(PhBu)Pt(μ-OOC—(CH2)2—CONH(CH2)3COO)—Pt(DCA)(NH3)2 (Cl2)](TFA)2 [Compound 3a] | 0.36 ± 0.08 | 0.08 ± 0.01 | 0.79 | 0.2 ± 0.09 | 0.95 ± 0.08 | 0.09 | 40 ± 4.58 | 59.1 ± 3.84 | 10.3 ± 4.85 | 2.25 ± 0.29 | 5.5 | about 8% | ~10% | times more effective than CDDP (PSN1 cells; PSN1 cells): up to 200 fold; times more effective than OXP (PSN1 cells; PSN1 cells): ≤ 92 fold; times more effective than CDDP (HCT-15 spheroids; HCT-15 3D model): about 2 fold; factor by which activity exceeded that of the reference drugs (PSN-1 spheroids; PSN-1 3D model): about 6 fold; times SI better than that of cisplatin [1]: about 2 fold; Pt(IV)-phen moiety reduced ([2]; after 1 day): about 22%; Pt(IV)-phen moiety reduced ([2]; after 2 days): 39%; Pt(IV)-phen moiety reduced ([2]; after 3 days): 58%; fold increase in histone-DNA formation with respect to controls (PSN-1 cells): roughly 20 fold |
| [NH2][Pt]([NH2])([Cl])[Cl] [CDDP, Cisplatin, reference compound] | 15.3 ± 2.63 | 3.11 ± 0.98 | 2.22 | 1.65 ± 0.51 | 3.28 ± 2.38 | 18.2 | 89.2 ± 3.44 | 69.6 ± 8.21 | 59.9 ± 12.9 | 19.6 ± 2.95 | 2.7 | not effective in modifying HDAC activity | not effective in modifying HDAC activity | IC50 (HCT-15 cells; HCT-15, 72 h exposure, MTT (Table 1), read-out: IC50 (median growth inhibitory concentration)): 11.3 ± 1.06 µM; IC50 (A498 cells): 17.5 ± 1.21 µM; IC50 (A375 cells; A375, 72 h exposure, MTT (Table 1), read-out: IC50 (median growth inhibitory concentration)): 4.03 ± 0.95 µM; Log P [5]: −2.25 ± 0.04; fold more potent than 3b (2008 cells; 2008 cells): ~3 fold |
